“Also recorded” adds a separate entry of the source.
Experiments:
human SPPL2a = biological target: T1, human SPPL2a (Homo sapiens, UniProt Q8TCT8); test: Nuclear translocation imaging assay for human SPPL2a (SPPL2a reporter U2OS cell line); format: cell-based; conditions: U2OS reporter cells, 24 h incubation
T1 construct: expressed in transfected cells; host or cells: U2OS (SPPL2a reporter cell line)
T1 sequence (Q8TCT8 26-520): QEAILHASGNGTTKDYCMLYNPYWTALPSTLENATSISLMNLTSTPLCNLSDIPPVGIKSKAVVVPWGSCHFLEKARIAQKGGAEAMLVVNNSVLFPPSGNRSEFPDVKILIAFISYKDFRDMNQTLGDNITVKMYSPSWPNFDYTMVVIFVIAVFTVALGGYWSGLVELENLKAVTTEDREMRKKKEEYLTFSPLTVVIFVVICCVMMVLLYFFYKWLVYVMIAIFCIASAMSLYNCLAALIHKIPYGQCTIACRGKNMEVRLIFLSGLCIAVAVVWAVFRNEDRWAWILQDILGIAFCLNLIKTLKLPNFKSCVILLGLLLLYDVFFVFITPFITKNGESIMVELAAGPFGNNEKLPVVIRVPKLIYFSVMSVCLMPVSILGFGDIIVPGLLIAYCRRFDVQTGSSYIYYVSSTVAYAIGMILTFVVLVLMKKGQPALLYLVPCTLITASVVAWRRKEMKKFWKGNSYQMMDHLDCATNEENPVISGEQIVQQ
Protocol: The nuclear translocation imaging assays for human SPPL2a were performed using an SPPL2a reporter U2OS cell line as previously described (Velcicky et al 2018, Zhang et al 2017). These cells stably express human SPPL2a and a doxycycline inducible eGFP TNFα (aa 1-76) NTF fusion protein (SPPL2a substrate). Both Example 1 and Example A were added at indicated concentrations and cells were incubated for 24 h, washed, and fixed. Nuclei were stained with DAPI. Images were acquired on a confocal fluorescence microscope system LSM-800 (Carl Zeiss). Image data was analyzed by using mid-section from Z-stack images of at least 10 individual cells per sample. All data is presented as mean+SEM. Statistical significance was calculated with the ANOVA test using GraphPad Prism™ 10.

[1] = system: experimental autoimmune encephalomyelitis (EAE) mouse model; test: Experimental autoimmune encephalomyelitis (EAE) mouse model; format: in vivo, mice; conditions: for disease score (EAE severity score): compared to vehicle
Protocol: The EAE model was used to evaluate the potential of SPPL2a inhibition in an in vivo mouse model of autoimmune disease. In this study, EAE was induced in female mice, aged 7-9 weeks, using an EAE induction kit (EK-2160, Hooke Labs) containing human recombinant MOG 1 125 antigen emulsified in CFA. EAE severity score was measured on a scale of 0-6 as per the IACUC approved protocol for 20 days. Mice were treated orally with the SPPL2a inhibitor Example A at 15 mg/kg and 30 mg/kg twice daily (first dose given on the same day prior to immunization). Animals were euthanized and tissues, plasma, and serum were collected for further analysis.
Anti-mouse MOG antibodies were measured in the serum of mice using quantitative ELISA kit (AS-55156, AnaSpec). […] All data is presented as mean+SEM. For comparison of more than two groups, ANOVA was used. All statistical analysis was performed using GraphPad Prism™ 10 or higher.

[2] = system: MRL/MpJ-Faslpr/J mice, lupus-like disease; test: Mouse model of systemic lupus (SLE); format: in vivo
Protocol: A mouse model of SLE was used to evaluate the treatment potential of SPPL2a inhibition by Example A in vivo in female mice aged 8 weeks. The MRL/MpJ-Faslpr/J (JAX stock #000485) mice used in this study develop a spontaneously accelerated and aggressive lupus-like disease characterized by immune-mediated damage to the organs, and by the presence of circulating auto-Abs against dsDNA, which are serological hallmarks of SLE. Mice were prophylactically treated orally with Example A at 15 mg/kg and 30 mg/kg dose, twice daily after allotment into different groups starting at week 10. As a control, cyclophosphamide at 25 mg/kg dose was given intraperitoneally, twice weekly. Mice were monitored weekly for the clinical sign development, proteinuria, skin lesions and lymphadenopathy. The study was terminated by euthanizing mice at 20 weeks of age following 10 weeks of dosing. All data is presented as mean+SEM. For comparison of more than two groups, ANOVA was used. All statistical analysis was performed using GraphPad Prism™10.
Inflammatory cytokine levels (TNFα and IFNγ) and murine immunoglobulin levels (Ig) were measured using MSD® multi-spot assay kits.

[3] = both doses tested (15 and 30 mg/kg orally twice daily)
[4] = both treated groups (15 and 30 mg/kg BID)

`CNC(=O)c1nc(C)c(C(=O)NC[C@@H](C)C(=O)N[C@@H]2C(=O)N3CCCN3Cc3ccccc32)s1` [Example A, N^2,4-dimethyl-N^5—((R)-2-methyl-3-oxo-3-(((S)-11-oxo-2,3,10,11-tetrahydro-1H,5H-benzo[d]pyrazolo[1,2-a][1,2]diazepin-10-yl)amino)propyl)thiazole-2,5-dicarboxamide] was tested, and the “inhibition of nuclear translocation of TNFα-GFP” value (human SPPL2a) was “inhibited; also recorded: comparable and significant TNFα-GFP inhibition of nuclear translocation”, the IgG2a level ([1]; 15 mg/kg) was “Trends to lower Ig titers” and the IgG2b level ([1]; 15 mg/kg) was “Trends to lower Ig titers”. For the same molecule, the IgM level ([1]; 15 mg/kg) was “Trends to lower Ig titers”, the “disease score (EAE severity score)” value ([1]; 15 mg/kg orally twice daily) was “significant reduction” and the IgA ([1]; 30 mg/kg) was “lower total IgG1 and IgA trend”. For the same molecule, the IgG2a titer ([1]; 30 mg/kg) was “Significant reduction”, the IgG2b titer ([1]; 30 mg/kg) was “Significant reduction” and the IgG3 titer ([1]; 30 mg/kg) was “Significant reduction”. For the same molecule, the IgM titer ([1]; 30 mg/kg) was “Significant reduction”, the “total IgG1” value ([1]; 30 mg/kg) was “lower total IgG1 and IgA trend” and the “disease score (EAE severity score)” value ([1]; 30 mg/kg orally twice daily) was “significant reduction”. For the same molecule, the “total Ig levels” value ([1]; EAE induced mice) was “significantly inhibited”, the “clinical signs of EAE” value ([1]; oral, twice daily, starting at day 13 of the treatment) was “significantly reduced” and the “anti-MOG antibodies in serum” value ([1]; quantitative ELISA) was “significant reduction”. For the same molecule, the “TNFα levels in mouse serum” value ([2]; 15 mg/kg BID) was “No significant changes”, the “Levels of IgA” value ([2]; 15 mg/kg dose) was “significantly down regulated” and the kidney pathology ([2]; 15 mg/kg, compared to vehicle control) was “did not exhibit a test article-related change compared to the vehicle control except in the blood vessels”. For the same molecule, the “TNFα levels in mouse serum” value ([2]; 30 mg/kg BID) was “significantly inhibits”, the “antibody production in mouse serum” value ([2]; 30 mg/kg BID) was “significantly inhibits” and the “Levels of IgA” value ([2]; 30 mg/kg dose) was “trended lower”. The “kidney pathology: membranoproliferative nephritis, tubular dilation and casts, interstitial inflammation, fibrosis, blood vessel necrosis, and inflammation” value ([2]; 30 mg/kg oral twice daily) was “statistically significant decrease”, the “Serum IFNγ levels” value ([2]; both doses (15 and 30 mg/kg BID)) was “modest increase” and the proteinuria [2, 3] was “effectively reduced; also recorded: Significant reduction”. The “skin lesion formation / skin lesional scores” value [2, 3] was “effectively reduced; also recorded: Significant reduction”, the IgG1 [2, 4] was “significantly lower” and the IgG2a [2, 4] was “significantly lower”. For the same molecule, the IgG2b [2, 4] was “significantly lower”, the IgG3 [2, 4] was “significantly lower” and the IgM [2, 4] was “significantly lower”. For the same molecule, the “anti ds-DNA antibody production” value ([2]; compared to vehicle control) was “significantly reduced” and the lymphadenopathy ([2]; highest dose tested) was “significantly reduced; also recorded: Significant reduction”.

Source: patent publication US20250263416A1, “SPPL2a INHIBITORS” (Incyte Corporation, priority 2024, published 2025)
